Measured values: patent publication US20260240975A1, “VALIDATED HPV16-DERIVED S[…]” (Deutsches Krebsforschungszentrum Stiftung des öffentlichen …, priority 2023, published 2026)

Test system: short-term antigen-specific T cell lines generated from PBMCs
Test: Interferon-γ ELISpot assay on short-term T cell lines
Assay type: cell-based, human
Set-up: key: +: ELISPOT: Immungenicity of the peptide shown by IFN-gamma ELISPOT analysis; * Highlights data from published resources; +*: * Highlights data from published resources

8 (SKISEYRHYCY; Human papillomavirus 16) [compound 8]
ELISpot (HLA restriction A01): +

9 (SEYRHYCYSLY; Human papillomavirus 16) [compound 9]
ELISpot (HLA restriction A01): + | ELISpot (HLA restriction B15): 1

10 (ETTDLYCY; Human papillomavirus 16) [compound 10]
ELISpot (HLA restriction A01): +

28 (KLPQLCTELQT; Human papillomavirus 16) [compound 28]
ELISpot (HLA restriction A02): +

29 (ELQTTIHDI; Human papillomavirus 16) [compound 29]
ELISpot (HLA restriction A02): +

32 (TLHEYMLDLQP; Human papillomavirus 16) [compound 32]
ELISpot (HLA restriction A02): +

35 (IILECVYCK; Human papillomavirus 16) [compound 35]
ELISpot (HLA restriction A11): +

36 (HLDKKQRFH; Human papillomavirus 16) [compound 36]
ELISpot (HLA restriction A03): +

47 (MFQDPQERPRK; Human papillomavirus 16) [compound 47]
ELISpot (HLA restriction A03): +

48 (YAVCDKCLKFY; Human papillomavirus 16) [compound 48]
ELISpot (HLA restriction A11): +

49 (AVCDKCLK; Human papillomavirus 16) [compound 49]
ELISpot (HLA restriction A03): +

50 (KCLKFYSKI; Human papillomavirus 16) [compound 50]
ELISpot (HLA restriction A03): +

51 (KFYSKISEY; Human papillomavirus 16) [compound 51]
ELISpot (HLA restriction A03): + | ELISpot (HLA restriction A24): +

52 (KFYSKISEYR; Human papillomavirus 16) [compound 52]
ELISpot (HLA restriction A03): +

54 (TTLEQQYNK; Human papillomavirus 16) [compound 54]
ELISpot (HLA restriction A03): +

56 (LIRCINCQK; Human papillomavirus 16) [compound 56]
ELISpot (HLA restriction A03): +

57 (RCINCQKPLCP; Human papillomavirus 16) [compound 57]
ELISpot (HLA restriction A03): +

58 (KQRFHNIRGR; Human papillomavirus 16) [compound 58]
ELISpot (HLA restriction A03): +

59 (LGIVCPICSQK; Human papillomavirus 16) [compound 59]
ELISpot (HLA restriction A11): +

63 (PYAVCDKCLKF; Human papillomavirus 16) [compound 63]
ELISpot (HLA restriction A24): +

72 (YSLYGTTL; Human papillomavirus 16) [compound 72]
ELISpot (HLA restriction A24): +

73 (HLDKKQRFHNI; Human papillomavirus 16) [compound 73]
ELISpot (HLA restriction A24): +

74 (DKKQRFHN; Human papillomavirus 16) [compound 74]
ELISpot (HLA restriction A24): +

75 (AHYNIVTF; Human papillomavirus 16) [compound 75]
ELISpot (HLA restriction A24): +

82 (RPRKLPQLCT; Human papillomavirus 16) [compound 82]
ELISpot (HLA restriction B07): +

84 (RCMSCCRSSR; Human papillomavirus 16) [compound 84]
ELISpot (HLA restriction B07): +

89 (QQLLRREVY; Human papillomavirus 16) [compound 89]
ELISpot (HLA restriction B15): +

93 (FAFRDLCIVY; Human papillomavirus 16) [compound 93]
ELISpot (HLA restriction B15): +

94 (LCIVYRDGNPY; Human papillomavirus 16) [compound 94]
ELISpot (HLA restriction B15): +

96 (LLRREVYDFAF; Human papillomavirus 16) [compound 96]
ELISpot (HLA restriction B15): +

97 (LRREVYDFAF; Human papillomavirus 16) [compound 97]
ELISpot (HLA restriction B15): +

98 (IVYRDGNPYAV; Human papillomavirus 16) [compound 98]
ELISpot (HLA restriction B15): +

99 (AVCDKCLKF; Human papillomavirus 16) [compound 99]
ELISpot (HLA restriction B15): +

100 (CLKFYSKISEY; Human papillomavirus 16) [compound 100]
ELISpot (HLA restriction B15): +

101 (FYSKISEY; Human papillomavirus 16) [compound 101]
ELISpot (HLA restriction B15): +

104 (SEYRHYCY; Human papillomavirus 16) [compound 104]
ELISpot (HLA restriction B15): +

105 (QQYNKPLCDL; Human papillomavirus 16) [compound 105]
ELISpot (HLA restriction B15): +
